Experimental findings from ChEMBL document CHEMBL4699590, “Discovery of SARxxxx92, a pan-PIM kinase inhibitor, efficacious in a KG1 tumor model” (Bioorg Med Chem Lett, 2020) are described below.

Series [1] in a line: Permeability in human Caco2/TC7 cells at 5 uM. The conditions noted are these: Caco-2, read-out: permeability. Type of series: ADME, cell-based. Background: Passage across Caco-2 layers is used to estimate intestinal permeability.
Series [2] is described as follows: Inhibition of PIM in human KG-1 cells assessed as reduction in PS6 level. The class given is cell-based.
Series [3] has as its system KG-1. As to the kind of experiment: Cytotoxicity against human KG-1 cells assessed as reduction in cell viability. The class given is functional, cell-based.
The target in series [4] is Serine/threonine-protein kinase pim-2 (Homo sapiens, UniProt Q9P1W9). Put plainly: Inhibition of PIM2 (unknown origin).
Chain of Serine/threonine-protein kinase pim-2 (Q9P1W9 whole entry): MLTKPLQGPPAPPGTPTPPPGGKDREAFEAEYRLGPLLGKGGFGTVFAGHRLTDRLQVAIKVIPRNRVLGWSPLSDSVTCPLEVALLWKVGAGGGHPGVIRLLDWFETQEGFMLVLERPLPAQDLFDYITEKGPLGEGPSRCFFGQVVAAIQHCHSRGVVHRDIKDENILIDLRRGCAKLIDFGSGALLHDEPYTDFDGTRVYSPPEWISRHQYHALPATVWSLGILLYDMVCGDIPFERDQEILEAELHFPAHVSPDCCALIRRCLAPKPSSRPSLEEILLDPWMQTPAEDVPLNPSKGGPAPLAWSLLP
Series [5] in a line: Half life in rat at 3 mg/kg, iv. Type of series: ADME, organism-based. To be noted: in vivo.
Series [6] is described as follows: Free plasma concentration in human KG-1 tumor bearing mouse at 25 mg/kg, po measured after 8 hrs. The class given is ADME, organism-based. The conditions noted are these: in vivo.
Series [7] has as its system KG-1. As to the kind of experiment: Antitumor activity against human KG-1 tumor bearing mouse assessed as reduction BAD phosphorylation at 25 mg/kg, po measured after 24 hrs. Type of series: functional. The conditions noted are these: KG-1, po.
The nature of series [8]: Unbound fraction in human KG-1 tumor bearing mouse plasma at 25 mg/kg, po. Type of series: ADME, organism-based.
The subject of series [9] is KG-1. As to the kind of experiment: Antitumor against human KG-1 cells xenografted in mouse assessed as tumor volume at 100 mg/kg, po administered BID for 3 weeks relative to control. Type of series: functional. A general note: A xenograft is tissue or cells of one species grown in another, often human tumour cells in immunodeficient mice.
Series [10] deals with KG-1. As to the kind of experiment: Antitumor against human KG-1 cells xenografted in mouse assessed as tumor volume at 150 mg/kg, po administered BID for 3 weeks relative to control. The class given is functional.
Series [11] can be described thus: Volume of distribution at steady state in rat at 3 mg/kg, iv. Type of series: ADME, organism-based. To be noted: in vivo, read-out: Vdss.
A short description of series [12]: Thermodynamic solubility in pH 7.4 buffer. The class given is physicochemical. The conditions noted are these: read-out: Therm_solubility.
Series [13] in a line: Free tumor concentration in human KG-1 tumor bearing mouse at 25 mg/kg, po measured after 8 hrs. Type of series: ADME, organism-based, Neoplasm. The conditions noted are these: in vivo.
Series [14] is described as follows: Clearance in rat at 3 mg/kg, iv. Type of series: ADME, organism-based. To be noted: in vivo.
In series [15] the target is Voltage-gated inwardly rectifying potassium channel KCNH2 (Homo sapiens, UniProt Q12809). Put plainly: Inhibition of human ERG by patch clamp assay. (In general: The patch-clamp technique gives a direct electrical read-out from membranes.)
Chain of Voltage-gated inwardly rectifying potassium channel KCNH2 (Q12809 whole entry): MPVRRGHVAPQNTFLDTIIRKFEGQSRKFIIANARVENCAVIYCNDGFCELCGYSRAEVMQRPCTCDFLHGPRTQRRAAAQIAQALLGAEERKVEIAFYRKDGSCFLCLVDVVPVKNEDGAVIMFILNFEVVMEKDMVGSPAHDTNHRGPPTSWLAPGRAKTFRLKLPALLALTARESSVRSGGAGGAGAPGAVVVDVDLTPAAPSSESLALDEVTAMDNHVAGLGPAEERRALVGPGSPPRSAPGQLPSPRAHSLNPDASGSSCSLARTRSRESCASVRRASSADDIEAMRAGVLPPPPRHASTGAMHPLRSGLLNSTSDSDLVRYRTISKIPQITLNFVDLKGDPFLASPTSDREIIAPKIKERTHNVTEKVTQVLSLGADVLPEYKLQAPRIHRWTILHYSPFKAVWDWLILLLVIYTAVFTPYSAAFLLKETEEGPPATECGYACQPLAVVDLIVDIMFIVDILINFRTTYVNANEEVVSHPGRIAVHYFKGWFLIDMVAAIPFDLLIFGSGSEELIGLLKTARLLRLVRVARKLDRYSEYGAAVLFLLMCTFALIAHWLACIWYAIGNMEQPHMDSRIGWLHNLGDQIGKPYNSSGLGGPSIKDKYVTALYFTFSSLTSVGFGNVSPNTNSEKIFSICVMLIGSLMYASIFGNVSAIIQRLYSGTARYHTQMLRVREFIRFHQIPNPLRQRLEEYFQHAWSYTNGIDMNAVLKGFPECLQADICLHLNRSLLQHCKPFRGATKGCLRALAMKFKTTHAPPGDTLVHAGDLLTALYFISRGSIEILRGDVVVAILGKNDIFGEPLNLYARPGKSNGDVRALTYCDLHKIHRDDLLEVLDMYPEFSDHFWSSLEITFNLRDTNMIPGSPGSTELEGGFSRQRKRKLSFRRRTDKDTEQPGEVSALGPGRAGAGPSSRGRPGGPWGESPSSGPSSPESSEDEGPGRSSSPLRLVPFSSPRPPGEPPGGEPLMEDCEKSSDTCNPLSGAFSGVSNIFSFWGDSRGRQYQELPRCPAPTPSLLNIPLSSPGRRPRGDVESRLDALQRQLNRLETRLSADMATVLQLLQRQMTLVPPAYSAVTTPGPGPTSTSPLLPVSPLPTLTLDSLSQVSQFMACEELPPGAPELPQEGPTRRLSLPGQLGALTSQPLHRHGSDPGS
Series [16] relates to KG-1. As to the kind of experiment: Antitumor activity against human KG-1 tumor bearing mouse assessed as reduction BAD phosphorylation at 25 mg/kg, po measured after 8 hrs. The class given is functional. The conditions noted are these: KG-1, po.
For series [17], the system named is KG-1. As to the kind of experiment: Antitumor against human KG-1 cells xenografted in mouse assessed as tumor growth inhibition at 150 mg/kg, po administered BID for 3 weeks. The class given is functional. The conditions noted are these: KG-1, po, 504 h, read-out: TGI.
A short description of series [18]: Free tumor concentration in human KG-1 tumor bearing mouse at 25 mg/kg, po measured after 24 hrs. The class given is ADME, organism-based, Neoplasm. To be noted: in vivo.
The nature of series [19]: Cmax in rat at 3 mg/kg, iv. Also noted: route intravenous, dose 3 mg/kg. Type of series: ADME, organism-based. The conditions noted are these: in vivo.
Series [20] can be described thus: Oral bioavailability in rat at 10 mg/kg. The class given is ADME, organism-based. To be noted: in vivo.
Series [21] is described as follows: Free plasma concentration in human KG-1 tumor bearing mouse at 25 mg/kg, po measured after 24 hrs. Type of series: ADME, organism-based. To be noted: in vivo.
Series [22] in a line: Toxicity in mouse xenografted with human KG-1 cells assessed as reduction in body weight at 50 to 150 mg/kg, po administered bid for 3 weeks. The class given is organism-based. Also noted: scale not given: the % may be the effect or the level left. The conditions noted are these: in vivo, 504 h, dose 50-150 mg/kg.
Series [23] deals with KG-1. As to the kind of experiment: Antitumor against human KG-1 cells xenografted in mouse assessed as tumor volume at 50 mg/kg, po administered BID for 3 weeks relative to control. The class given is functional.

In brackets after ≈: the same amount, converted by molar mass.

For orientation: EC50 means the concentration needed to bring the measured effect to its halfway point. One may read the IC50 as the point on the concentration scale where inhibition reaches its midpoint. The term half-life denotes how long it takes for the measured level to halve. As usually defined, the fraction unbound is free concentration divided by total concentration. Broadly, the T/C is the ratio of treated to control. As usually defined, the clearance is a measure of how efficiently the substance is removed, as volume per time. What is called Cmax is the maximum level reached in the sampled fluid or tissue. The bioavailability is the share of a dose that reaches the circulation, judged against a reference dose that is usually intravenous.

As for `Cc1cn([C@H](C)[C@@H]2CCNC[C@H]2F)c2nc(C(N)=O)cc(Cl)c12` (racemic), the Papp at 5 µM in [1] stood at 120 nm/s. The EC50 in [2] is 0.024 µM; in series [3] it was 0.02 µM.
In the same order, the values of `Cc1cn([C@@H](C)[C@@H]2CCNC[C@@H]2F)c2nc(C(N)=O)cc(Cl)c12` (racemic) are 17 nm/s, 0.115 µM and 0.195 µM.
`Cc1cn([C@H](C)[C@H]2CCNC[C@@H]2F)c2nc(C(N)=O)cc(Cl)c12` (racemic): the Papp at 5 µM in [1] is 71 nm/s. Besides, the EC50 in [2] worked out at 0.052 µM; in series [3] it was 0.051 µM.
In the same order, the values of `Cc1cn([C@@H](C)[C@H]2CCNC[C@H]2F)c2nc(C(N)=O)cc(Cl)c12` (racemic) are 15 nm/s, 0.006 µM and 0.017 µM.
In the case of `Cc1cn([C@H](C)[C@@]2(F)CCNC2)c2nc(C(N)=O)cc(Cl)c12` (stereo in doubt), the IC50 in [4] is 1.78 µM. Besides, in series [3], the EC50 was 7.23 µM.
In the case of `Cc1cn([C@@H](C)[C@]2(F)CCNC2)c2nc(C(N)=O)cc(Cl)c12` (stereo in doubt), the half-life in [5] is 2.7 h. Moreover, the IC50 in [4] turned out to be 0.006 µM; in [15], 22 µM. Besides, the results for the “Cp(f)” value in series [6] and in series [21] were 0.24 µM and 0.054 µM, respectively. In addition, the inhibition in vivo at 25 mg/kg worked out at 55% in [7] and 65% in [16]. This compound had a fraction unbound in series [8] of 0.055. Besides, the results for the T/C in series [9], in series [10] and in series [23] were 50.7%, 13.1% and 56.1%, respectively. The Papp at 5 µM in [1] was determined as 23 nm/s. In series [11], the Vd came out at 9.9 L/kg. Further, the solubility thermodynamic in series [12] was 6.8 mM (≈ 2210 µg/mL). For the same compound, the “Drug uptake(free)” value was found to be 720 nM in [13] and 120 nM in [18]. The compound also showed a clearance in series [14] of 4.5 L/h/kg. For the same compound, the inhibition in vivo at 150 mg/kg in series [17] was 87%. This compound also yielded a Cmax in series [19] of 0.174 µg/mL. Also, in [20], the bioavailability turned out to be 59%. Further, the Activity in series [22] was greater than 15%. Further, the figures for the EC50 in [2] and in series [3] were 0.071 µM and 0.061 µM, respectively.
For the compound `Cc1cn([C@H](C)[C@]2(F)CCNC2)c2nc(C(N)=O)cc(Cl)c12` (stereo in doubt), the IC50 in series [4] is 0.515 µM; in [15], 30 µM. In series [1], the Papp at 5 µM is 18 nm/s. Besides, the EC50 is 2.03 µM in series [2] and 9.07 µM in series [3].
Regarding `Cc1cn([C@@H](C)[C@@]2(F)CCNC2)c2nc(C(N)=O)cc(Cl)c12` (stereo in doubt), in series [4], the IC50 worked out at 0.16 µM. The EC50 in series [2] stood at 0.876 µM; in [3], 0.808 µM.
